Results as given in paper PMC5602553 (Biochemistry, 2017).

Biological target: T1, KpCld (Klebsiella pneumoniae, UniProt A6TJ49)
T1 sequence (A6TJ49 1-187): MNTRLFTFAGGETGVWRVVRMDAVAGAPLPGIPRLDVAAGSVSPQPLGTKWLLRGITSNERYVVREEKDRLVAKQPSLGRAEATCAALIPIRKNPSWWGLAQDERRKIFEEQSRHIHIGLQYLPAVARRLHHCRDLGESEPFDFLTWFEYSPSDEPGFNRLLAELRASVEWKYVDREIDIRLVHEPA
Details: 100 mM phosphate pH 6.0; ferric enzyme; single binding site

## Br [Br^−]
  Kd: 12.2 mM
